Reference: patent US8552002B2 (Novartis AG, priority 2004, dated 2013)

Key:
Assay type in all cases: biochemical
KDR = target: T1, KDR (Homo sapiens, UniProt P35968); test: Inhibitory activity against KDR (VEGF-R2), in vitro data of Examples 170 and 207; settings: 10 μM; Examples 1 to 169; read-out: KDR inhibition at 10 μM
T1 construct: expressed in transfected cells; host or cells: CHO cells
Experimental: (Controls comprise medium without test compounds). After two hours of incubation at 37° C., recombinant VEGF is added; the final VEGF concentration is 20 ng/ml. After a further five minutes incubation at 37° C., the cells are washed twice with ice-cold PBS (phosphate-buffered saline) and immediately lysed in 100 μl lysis buffer per well. The lysates are then centrifuged to remove the cell nuclei, and the protein concentrations of the supernatants are determined using a commercial protein assay (BIORAD). The lysates can then either be immediately used or, if necessary, stored at −20° C. […] The plates are then washed and the remaining free protein-binding sites are saturated with 3% TopBlock® (Juro, Cat. # TB232010) in phosphate buffered saline with Tween 20® (polyoxyethylen(20)sorbitane monolaurate, ICI/Uniquema) (PBST). The cell lysates (20 μg protein per well) are then incubated in these plates overnight at 4° C. together with an antiphosphotyrosine antibody coupled with alkaline phosphatase (PY20:AP from Zymed). […] The luminescence is measured in a Packard Top Count Microplate Scintillation Counter.

FGFR3 (K650E) = target: T2, FGFR3 (K650E) (Homo sapiens, UniProt P22607, K650E); test: Recombinant GST-FGFR-3-K650E tyrosine kinase assay (33P into poly(Glu,Tyr)); settings: 10 μM; Examples 1 to 169; read-out: FGFR3 (K650E) inhibition at 10 μM
T2 construct: amino acids 411-806 of the cytoplasmic domain of human FGFR-3, N-terminally fused to GST; made in house; host or cells: Sf9 insect cells (baculovirus)

Tek = target: T3, Tek (Homo sapiens, UniProt Q02763); test: Recombinant GST-Tek (Tie-2) tyrosine kinase assay (33P into poly(Glu,Tyr)); settings: Examples 1 to 169
T3 construct: amino acids 773-1124 of the cytoplasmic kinase domain of human Tek, N-terminally fused to GST; made in house; host or cells: Sf9 insect cells (baculovirus)
From the text: (Tie-2/Tek): The baculovirus donor vector pFbacG01 was used to generate a recombinant baculovirus that expressed the amino acid region amino acids 773-1124 of the cytoplasmic kinase domain of human Tek, N-terminally fused to GST (Provided by Dr. Marmé, Institute of Molecular Medicine, Freiburg, Germany based on a Research Collaboration). Tek was recloned into the pFbacG01 transfer vector by EcoRI excision and ligation into EcoRI digested pFbacG01 (FBG-Tie2/Tek).
Production of virus: Transfer vectors containing the kinase domains were transfected into the DH10Bac cell line (GIBCO) and plated on selective agar plates. Colonies without insertion of the fusion sequence into the viral genome (carried by the bacteria) are blue. Single white colonies were picked and viral DNA (bacmid) isolated from the bacteria by standard plasmid purification procedures. Sf9 cells or Sf21 cells were then transfected in 25 cm^2 flasks with the viral DNA using Cellfectin reagent.
Determination of small scale protein expression in Sf9 cells: Virus containing media was collected from the transfected cell culture and used for infection to increase its titer. Virus containing media obtained after two rounds of infection was used for large-scale protein expression. For large-scale protein expression 100 cm^2 round tissue culture plates were seeded with 5×10^7 cells/plate and infected with 1 mL of virus-containing media (approx. 5 MOIs). After 3 days the cells were scraped off the plate and centrifuged at 500 rpm for 5 min. Cell pellets from 10-20, 100 cm^2 plates, were resuspended in 50 mL of ice-cold lysis buffer (25 mMTris-HCl, pH7.5, 2 mMEDTA, 1% NP-40, 1 mM DTT, 1 mMP MSF). The cells were stirred on ice for 15 min and then centrifuged at 5000 rpms for 20 min.
Purification of GST-tagged proteins: The centrifuged cell lysate was loaded onto a 2 mL glutathione-sepharose column and washed three times with 10 mL of 25 mM Tris-HCl, pH 7.5, 2 mM EDTA, 1 mM DTT, 200 mM NaCl. The GST-tagged proteins were then eluted by 10 applications (1 mL each) of 25 mM Tris-HCl, pH 7.5, 10 mM reduced-glutathione, 100 mM NaCl, 1 mM DTT, 10% Glycerol and stored at −70° C.
Measure of enzyme activity: Tyrosine protein kinase assays with either purified GST-Ret, GST-Tek or GST-FGFR-3-K650E were carried out in a final volume of 30 μL with final concentrations of the following components: Ret included 15 ng of GST-Ret, 20 mM Tris-HCl, pH 7.5, 1 mM MnCl2, 10 mM MgCl2, 1 mM DTT, 3 μg/mL poly(Glu,Tyr) 4:1, 1% DMSO and 2.0 μM ATP (γ-[^33P]-ATP 0.1 μCi). Tek included 150 ng of GST-Tek, 20 mM Tris-HCl, pH 7.5, 3 mM MnCl2, 3 mM MgCl2, 1 mM DTT, 0.01 mM Na3VO4, 250 μg/mL PEG 20'000, 10 μg/mL poly(Glu,Tyr) 4:1, 1% DMSO and 4.0 μM ATP (γ-[^33P]-ATP 0.1 μCi). FGFR-3-K650E included 10 ng of GST-FGFR-3-K650E, 20 mM Tris-HCl, pH 7.5, 3 mM MnCl2, 3 mM MgCl2, 1 mM DTT, […], 10 μg/mL poly(Glu,Tyr) 4:1, 1% DMSO and 4.0 μM ATP (γ-[^33P]-ATP 0.1 μCi).The activity was assayed in the presence or absence of inhibitors, by measuring the incorporation of ^33P from [γ^33P] ATP into poly(Glu,Tyr) 4:1. The assay was carried out in 96-well plates at ambient temperature for 30 min under conditions described below and terminated by the addition of 50 μL of 125 mM EDTA. Subsequently, 60 μL of the reaction mixture were transferred onto Immobilon-PVDF membrane (Millipore) previously soaked for 5 min with methanol, rinsed with water, then soaked for 5 min with 0.5% H3PO4 and mounted on vacuum manifold with disconnected vacuum source. After spotting all samples, vacuum was connected and each well rinsed with 200 μL 0.5% H3PO4. Membranes were removed and washed 4× on a shaker with 1.0% H3PO4, once with ethanol. Membranes were counted after drying at ambient temperature, mounting in Packard TopCount 96-well frame, and addition of 10 μL/well of Microscint™ (Packard). […]

T1 sequence (P35968 20-1356): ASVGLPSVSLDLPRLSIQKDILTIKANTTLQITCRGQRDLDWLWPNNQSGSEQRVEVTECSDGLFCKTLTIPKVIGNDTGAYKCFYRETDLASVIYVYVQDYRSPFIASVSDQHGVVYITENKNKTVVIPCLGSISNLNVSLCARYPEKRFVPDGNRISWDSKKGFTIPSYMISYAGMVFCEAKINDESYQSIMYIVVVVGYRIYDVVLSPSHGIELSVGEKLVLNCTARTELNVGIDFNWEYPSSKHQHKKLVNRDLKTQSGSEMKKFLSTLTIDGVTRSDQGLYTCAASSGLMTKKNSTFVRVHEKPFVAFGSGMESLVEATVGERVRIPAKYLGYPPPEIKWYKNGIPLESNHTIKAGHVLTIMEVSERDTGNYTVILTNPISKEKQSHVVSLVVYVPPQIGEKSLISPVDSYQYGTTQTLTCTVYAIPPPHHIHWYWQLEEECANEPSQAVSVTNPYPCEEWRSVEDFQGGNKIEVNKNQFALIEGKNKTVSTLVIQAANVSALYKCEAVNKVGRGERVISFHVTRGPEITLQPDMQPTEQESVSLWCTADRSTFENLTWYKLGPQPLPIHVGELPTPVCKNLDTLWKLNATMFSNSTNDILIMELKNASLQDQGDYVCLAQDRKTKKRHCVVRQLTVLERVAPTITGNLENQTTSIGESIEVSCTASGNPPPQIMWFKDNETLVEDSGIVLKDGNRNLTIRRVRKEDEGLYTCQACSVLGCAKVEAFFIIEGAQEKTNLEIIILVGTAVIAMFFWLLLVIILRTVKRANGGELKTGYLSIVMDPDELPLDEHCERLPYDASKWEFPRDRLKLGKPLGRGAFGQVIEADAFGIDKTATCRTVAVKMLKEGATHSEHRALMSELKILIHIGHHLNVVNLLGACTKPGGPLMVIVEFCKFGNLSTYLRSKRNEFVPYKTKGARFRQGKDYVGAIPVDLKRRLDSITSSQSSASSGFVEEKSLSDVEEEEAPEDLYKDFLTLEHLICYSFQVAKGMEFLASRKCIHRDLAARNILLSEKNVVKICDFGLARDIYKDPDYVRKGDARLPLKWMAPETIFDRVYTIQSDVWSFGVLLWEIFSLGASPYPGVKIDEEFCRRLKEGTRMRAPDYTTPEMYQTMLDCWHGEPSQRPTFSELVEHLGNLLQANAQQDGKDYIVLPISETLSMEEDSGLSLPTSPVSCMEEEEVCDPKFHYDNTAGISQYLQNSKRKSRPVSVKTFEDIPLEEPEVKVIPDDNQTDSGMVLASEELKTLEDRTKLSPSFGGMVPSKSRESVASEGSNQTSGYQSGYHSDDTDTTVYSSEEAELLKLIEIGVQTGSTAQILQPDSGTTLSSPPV
T2 sequence (P22607 411-806 K650E): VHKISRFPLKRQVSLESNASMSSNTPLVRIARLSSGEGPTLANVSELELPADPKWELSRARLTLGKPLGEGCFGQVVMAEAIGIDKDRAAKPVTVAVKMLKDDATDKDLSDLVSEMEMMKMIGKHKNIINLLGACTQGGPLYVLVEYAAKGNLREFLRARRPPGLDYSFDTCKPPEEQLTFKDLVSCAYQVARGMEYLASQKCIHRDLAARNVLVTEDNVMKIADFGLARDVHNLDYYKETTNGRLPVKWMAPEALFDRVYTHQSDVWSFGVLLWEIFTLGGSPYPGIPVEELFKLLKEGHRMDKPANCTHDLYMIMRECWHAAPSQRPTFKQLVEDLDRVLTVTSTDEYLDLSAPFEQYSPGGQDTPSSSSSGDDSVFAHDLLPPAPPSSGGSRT
T3 sequence (Q02763 773-1124): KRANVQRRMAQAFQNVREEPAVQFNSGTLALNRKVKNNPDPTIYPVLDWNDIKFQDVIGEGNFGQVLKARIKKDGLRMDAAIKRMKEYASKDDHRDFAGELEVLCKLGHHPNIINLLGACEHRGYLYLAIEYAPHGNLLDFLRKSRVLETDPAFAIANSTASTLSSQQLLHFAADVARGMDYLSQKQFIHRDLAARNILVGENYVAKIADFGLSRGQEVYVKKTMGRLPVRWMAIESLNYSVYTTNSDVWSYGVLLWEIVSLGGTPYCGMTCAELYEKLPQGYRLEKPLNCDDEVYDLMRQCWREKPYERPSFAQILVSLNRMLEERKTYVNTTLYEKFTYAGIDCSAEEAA

| SMILES | inhibition at 10 µM (KDR) [%] | inhibition at 10 µM (FGFR3 (K650E)) [%] | inhibition at 10 µM (Tek) [%] |
| --- | --- | --- | --- |
| CCN(C(=O)Nc1c(Cl)ccc(OC)c1Cl)c1cc(Nc2ccc(N3CCN(C)CC3)cc2)ncn1 [Example 59, 3-(2,6-Dichloro-3-methoxy-phenyl)-1-ethyl-1-{6-[4-(4-methyl-piperazin-1-yl)-phenylamino]-pyrimidin-4-yl}-urea] | 67 to 100 | 27 to 100 | 12 to 100 |
| COc1ccc(Nc2cc(NC(=O)Nc3c(Cl)cccc3Cl)ncn2)cn1 [Example 112, 1-(2,6-Dichloro-phenyl)-3-[6-(6-methoxy-pyridin-3-ylamino)-pyrimidin-4-yl]-urea] | 67 to 100 | 27 to 100 | 12 to 100 |
| O=C(Nc1cc(Nc2ccc(N3CCOCC3)cc2)ncn1)Nc1c(Cl)cccc1Cl [Example 108, 1-(2,6-Dichloro-Phenyl)-3-[6-(4-morpholin-4-yl-phenylamino)-pyrimidin-4-yl]-urea] | 67 to 100 | 27 to 100 | 12 to 100 |
| CCN(C(=O)Nc1c(Cl)c(OC)cc(OC)c1Cl)c1cc(Nc2ccc(N3CCN(C)CC3)cc2)ncn1 [Example 143, 3-(2,6-Dichloro-3,5-dimethoxy-phenyl)-1-ethyl-1-{6-[4-(4-methyl-piperazin-1-yl)-phenylamino]-pyrimidin-4-yl}-urea] | 67 to 100 | 27 to 100 | 12 to 100 |
| COc1ccc(OC)c(NC(=O)Nc2cc(Nc3cccc(N4CCN(C)CC4)c3)ncn2)c1 [Example 13, 1-(2,5-Dimethoxy-phenyl)-3-{6-[3-(4-methyl-piperazin-1-yl)-phenyl-amino]-pyrimidin-4-yl}-urea] | 67 to 100 | 27 to 100 | 12 to 100 |
| COc1cc(NC(=O)Nc2cc(Nc3ccccc3)ncn2)c(Cl)c(OC)c1 [Example 39, 1-(2-Chloro-3,5-dimethoxy-phenyl)-3-(6-phenylamino-pyrimidin-4-yl)-urea] | 67 to 100 | 27 to 100 | 12 to 100 |
| COc1cc(NC(=O)Nc2cc(Nc3cccc(N4CCN(C)CC4)c3)ncn2)cc(OC)c1 [Example 19, 1-(3,5-Dimethoxy-phenyl)-3-{6-[3-(4-methyl-piperazin-1-yl)-phenyl-amino]-pyrimidin-4-yl}-urea] | 67 to 100 | 27 to 100 | 12 to 100 |
| COc1cc(NC(=O)Nc2cc(Nc3cccc(Cl)c3)ncn2)cc(OC)c1 [Example 139, 1-[6-(3-Chloro-phenylamino)-pyrimidin-4-yl]-3-(3,5-dimethoxy-phenyl)-urea] | 67 to 100 | 27 to 100 | 12 to 100 |
| COc1cc(NC(=O)Nc2cc(Nc3ccc(OCCN4CCOCC4)cc3)ncn2)c(Cl)c(OC)c1 [Example 44, 1-(2-Chloro-3,5-dimethoxy-phenyl)-3-{6-[4-(2-morpholin-4-yl-ethoxy)-phenylamino]-pyrimidin-4-yl}-urea] | 67 to 100 | 27 to 100 | 12 to 100 |
| Cc1cccc(Cl)c1NC(=O)Nc1cc(Nc2cccc(N3CCN(C)CC3)c2)ncn1 [Example 7, 1-(2-Chloro-6-methyl-phenyl)-3-{6-[3-(4-methyl-piperazin-1-yl)-phenyl-amino]-pyrimidin-4-yl}-urea] | 67 to 100 | 27 to 100 | 12 to 100 |
| CCN(CC)CCOc1ccc(Nc2cc(NC(=O)Nc3c(Cl)cccc3Cl)ncn2)cc1 [Example 100, 1-(2,6-Dichloro-Phenyl)-3-{6-[4-(2-diethylamino-ethoxy)-phenylamino]-pyrimidin-4-yl}-urea] | 67 to 100 | 27 to 100 | 12 to 100 |
| CCN1CCN(c2ccc(Nc3cc(NC(=O)Nc4c(Cl)c(OC)cc(OC)c4Cl)ncn3)cc2)CC1 [Example 160, 1-(2,6-Dichloro-3,5-dimethoxy-phenyl)-3-{6-[4-(4-ethyl-piperazin-1-yl)-phenylamino]-pyrimidin-4-yl}-urea] | 67 to 100 | 27 to 100 | 12 to 100 |
| CCN(C(=O)Nc1c(Cl)c(OC)cc(OC)c1Cl)c1cc(Nc2cccc(CN(C)C)c2)ncn1 [Example 151, 3-(2,6-Dichloro-3,5-dimethoxy-phenyl)-1-[6-(3-dimethylaminomethyl-phenylamino)-pyrimidin-4-yl]-1-ethyl-urea] | 67 to 100 | 27 to 100 | 12 to 100 |
| CCN(C(=O)Nc1c(Cl)c(OC)cc(OC)c1Cl)c1cc(Nc2ccc(OCCN3CCCC3)cc2)ncn1 [Example 156, 3-(2,6-Dichloro-3,5-dimethoxy-phenyl)-1-ethyl-1-{6-[4-(2-pyrrolidin-1-yl-ethoxy)-phenylamino]-pyrimidin-4-yl}-urea] | 67 to 100 | 27 to 100 | 12 to 100 |
| CN(C(=O)Nc1c(Cl)cccc1Cl)c1cc(Nc2cccc(C#N)c2)ncn1 [Example 114, 1-[6-(3-Cyano-phenylamino)-pyrimidin-4-yl]-3-(2,6-dichloro-phenyl)-1-methyl-urea] | 67 to 100 | 27 to 100 | 12 to 100 |
| COc1cc(OC)c(Cl)c(NC(=O)N(C)c2cc(Nc3ccc(N4CCN(C(C)C)CC4)cc3)ncn2)c1Cl [Example 163, 3-(2,6-Dichloro-3,5-dimethoxy-phenyl)-1-{6-[4-(4-isopropyl-piperazin-1-yl)-phenylamino]-pyrimidin-4-yl}-1-methyl-urea] | 67 to 100 | 27 to 100 | 12 to 100 |
| COc1cc(C)c(NC(=O)Nc2cc(Nc3ccc(N4CCN(C)CC4)cc3)ncn2)cc1OC [Example 34, 1-(4,5-Dimethoxy-2-methyl-phenyl)-3-{6-[4-(4-methyl-piperazin-1-yl)-phenyl-amino]-pyrimidin-4-yl}-urea] | 67 to 100 | 27 to 100 | 12 to 100 |
| COc1cc(NC(=O)Nc2cc(Nc3cccc(N4CCN(C)CC4)c3)ncn2)c(Cl)c(OC)c1 [Example 41] | 67 to 100 | 27 to 100 | 12 to 100 |
